Measured values reported in patent US8129369B2, “Antifungal compounds containing benzothiazinone, benzoxazinone or benzoxazolinone and process thereof” (Council of Scientific & Industrial Research;, priority 2008, dated 2012).
≈ marks a conversion by molar mass, not a printed value.

Key:
C. albicans ATCC90028 = assay: MIC by broth micro-dilution method, C. albicans ATCC90028; type: cell-based, Candida albicans; conditions: for MIC: Candida albicans, ATCC90028, MIC = concentration exhibiting 50% inhibition vs positive control
Experimental: (§1) The compounds of Formula 1 were tested for antifungal activity against various fungi including Candida albicans, Aspergillus niger and Fusarium proliferatum. In vitro evaluation of antifungal activity was performed by determining the minimum inhibitory concentration (MIC) following standard methods (CLSI: Reference method for broth dilution antifungal susceptibility testing of yeasts; Approved standard, second edition M27-A2, 2002; CLSI: Reference method for broth dilution antifungal susceptibility testing of filamentous fungi; Approved standard M38-A, 2002). Anti-fungal susceptibility testing of these anti-fungal compounds was done by broth dilution method using RPMI 1640 medium with MOPS buffer. Known anti-fungal agents like Fluconazole and Amphotericin-B were used as standards. End points were determined after 48 hours visually and by using spectrophotometer wherever necessary.

C. albicans ATCC2091 = assay: MIC by broth micro-dilution method, C. albicans ATCC2091; type: cell-based, Candida albicans; conditions: for MIC: Candida albicans, ATCC2091, MIC = concentration exhibiting 50% inhibition vs positive control
Experimental: as §1

C. krusei ATCC6258 = assay: MIC by broth micro-dilution method, C. krusei ATCC6258; type: cell-based; conditions: for MIC: Pichia kudriavzevii, ATCC6258, MIC = concentration exhibiting 50% inhibition vs positive control
Experimental: as §1

C. albicans ATCC 24433 = assay: MIC by broth macro-dilution method, C. albicans ATCC 24433; type: cell-based, Candida albicans; conditions: 48 hours; for MIC: Candida albicans, ATCC24433, RPMI 1640 with MOPS, MIC = concentration exhibiting 80% inhibition vs positive growth control
Experimental: as §1
(§2) >16 μg/ml: The novel compounds of formula 1 are generally tested for concentration range from 0.03 μg/ml to the concentration till it was in solution (For e.g.: Back precipitation 128-32 μg/ml, Concentration for assay: 0.03 to 16 μg/ml).

C. glabrata ATCC90030 = assay: MIC by broth micro-dilution method, C. glabrata ATCC90030; type: cell-based; conditions: for MIC: Nakaseomyces glabratus, ATCC90030, MIC = concentration exhibiting 50% inhibition vs positive control
Experimental: as §1

[1] = test system: F. proliferatum ATCC 10052; assay: MIC by broth macro-dilution method, F. proliferatum ATCC 10052; type: cell-based, Fusarium proliferatum; conditions: 48 hours; for MIC: Fusarium proliferatum, ATCC10052, RPMI 1640 with MOPS, MIC = concentration exhibiting 80% inhibition vs positive growth control
Experimental: as §1, §2

A. niger ATCC 16404 = assay: MIC by broth macro-dilution method, A. niger ATCC 16404; type: cell-based, Aspergillus niger; conditions: 48 hours; for MIC: Aspergillus niger, ATCC16404, RPMI 1640 with MOPS, MIC = concentration exhibiting 80% inhibition vs positive growth control
Experimental: as §1, §2

C. albicans ATCC10231 = assay: MIC by broth micro-dilution method, C. albicans ATCC10231; type: cell-based, Candida albicans; conditions: for MIC: Candida albicans, ATCC10231, MIC = concentration exhibiting 50% inhibition vs positive control
Experimental: as §1

C. albicans ATCC24433 = assay: MIC by broth micro-dilution method, C. albicans ATCC24433; type: cell-based, Candida albicans; conditions: for MIC: Candida albicans, ATCC24433, MIC = concentration exhibiting 50% inhibition vs positive control
Experimental: as §1

C. tropicalis ATCC750 = assay: MIC by broth micro-dilution method, C. tropicalis ATCC750; type: cell-based; conditions: for MIC: Candida tropicalis, ATCC750, MIC = concentration exhibiting 50% inhibition vs positive control
Experimental: as §1

[2] = MIC = concentration exhibiting complete inhibition (Amphotericin B)
[3] = RPMI 1640 with MOPS, MIC = concentration exhibiting complete inhibition (Amphotericin B)

| SMILES | MIC (C. albicans ATCC 24433) [µg/mL] | MIC [1] [µg/mL] | MIC (A. niger ATCC 16404) [µg/mL] | other results |
| --- | --- | --- | --- | --- |
| C[C@@H]1[C@H](O)[C@@H](C)/C=C/C=C/C=C/C=C/C=C/C=C/C=C/[C@H](O[C@@H]2O[C@H](C)[C@@H](O)[C@H](N)[C@@H]2O)C[C@@H]2O[C@](O)(C[C@@H](O)C[C@@H](O)[C@H](O)CC[C@@H](O)C[C@@H](O)CC(=O)O[C@H]1C)C[C@H](O)[C@H]2C(=O)O [Amphotericin B, reference compound] | – | – | – | MIC C. albicans ATCC90028 (C. albicans ATCC90028; [2]): 0.5 µg/mL (≈ 0.541 µM); MIC C. albicans ATCC2091 (C. albicans ATCC2091; [2]): 0.5 µg/mL (≈ 0.541 µM); MIC C. krusei ATCC6258 (C. krusei ATCC6258; [2]): 0.5 µg/mL (≈ 0.541 µM); MIC C. albicans ATCC24433 (C. albicans ATCC 24433; [3]): 0.25 µg/mL (≈ 0.271 µM); MIC C. glabrata ATCC90030 (C. glabrata ATCC90030; [2]): 0.25 µg/mL (≈ 0.271 µM); MIC F. proliferatum ATCC 10052 [1, 3]: 2 µg/mL (≈ 2.16 µM); MIC A. niger ATCC 16404 (A. niger ATCC 16404; [3]): 1 µg/mL (≈ 1.08 µM); MIC C. albicans ATCC10231 (C. albicans ATCC10231; [2]): 0.5 µg/mL (≈ 0.541 µM); MIC C. albicans ATCC24433 (C. albicans ATCC24433; [2]): 0.25 µg/mL (≈ 0.271 µM); MIC C. tropicalis ATCC750 (C. tropicalis ATCC750; [2]): 0.5 µg/mL (≈ 0.541 µM) |
| O=C1CSc2cc(Br)ccc2N1CC(O)(Cn1cncn1)c1ccc(F)cc1F (stereo not shown) [Compound 1c, 7-Bromo-4-[2-(2,4-difluorophenyl)-2-hydroxy-3-[1,2,4]triazol-1-yl-propyl]-4H-benzo[1,4]thiazin-3-one] | 1 (≈ 2.08 µM) | > 16 | > 16 | – |
| COc1ccc2c(c1)SCC(=O)N2CC(O)(Cn1cncn1)c1ccc(F)cc1F (stereo not shown) [Compound 1d, 4-[2-(2,4-Difluorophenyl)-2-hydroxy-3-[1,2,4]triazol-1-yl-propyl]-7-methoxy-4H-benzo[1,4]thiazin-3-one] | 4 (≈ 9.25 µM) | > 32 | > 32 | – |
| O=C1COc2ccccc2N1CC(O)(Cn1cncn1)c1ccc(F)cc1F (stereo not shown) [Compound 1i, 4-[2-(2,4-Difluorophenyl)-2-hydroxy-3-[1,2,4]-triazol-1-yl-propyl]-4H-benzo[1,4]oxazin-3-one] | 0.5 (≈ 1.29 µM) | > 64 | > 64 | MIC (C. albicans ATCC90028): 0.12 µg/mL (≈ 0.311 µM); MIC (C. albicans ATCC2091): 4 µg/mL (≈ 10.4 µM); MIC (C. krusei ATCC6258): 16 µg/mL (≈ 41.4 µM); MIC (C. glabrata ATCC90030): 0.25 µg/mL (≈ 0.647 µM); MIC (C. albicans ATCC10231): 0.5 µg/mL (≈ 1.29 µM); MIC (C. albicans ATCC24433): 0.12 µg/mL (≈ 0.311 µM); MIC (C. tropicalis ATCC750): 2 µg/mL (≈ 5.18 µM) |
| O=C1COc2ccc(Cl)cc2N1CC(O)(Cn1cncn1)c1ccc(Br)cc1 (stereo not shown) [Compound 1n, 4-[2-(4-Bromophenyl)-2-hydroxy-3-[1,2,4]-triazol-1-yl-propyl]-6-chloro-4H-benzo[1,4]oxazin-3-one] | 4 (≈ 8.63 µM) | > 16 | > 16 | – |
| O=c1oc2ccccc2n1CC(O)(Cn1cncn1)c1ccc(F)cc1F (stereo not shown) [Compound 1q, 3-[2-(2,4-Difluorophenyl)-2-hydroxy-3-[1,2,4]triazol-1-yl-propyl]-3H-benzoxazolin-2-one] | 2 (≈ 5.37 µM) | > 128 | > 128 | – |
| OC(Cn1cncn1)(Cn1cncn1)c1ccc(F)cc1F [Fluconazole, reference compound] | 1 (≈ 3.27 µM) | > 128 | 128 (≈ 418 µM) | MIC (C. albicans ATCC90028): 0.5 µg/mL (≈ 1.63 µM); MIC (C. albicans ATCC2091): 4 µg/mL (≈ 13.1 µM); MIC (C. krusei ATCC6258): 64 µg/mL (≈ 209 µM); MIC (C. glabrata ATCC90030): 4 µg/mL (≈ 13.1 µM); MIC (C. albicans ATCC10231): 1 µg/mL (≈ 3.27 µM); MIC (C. albicans ATCC24433): 0.25 µg/mL (≈ 0.816 µM); MIC (C. tropicalis ATCC750): 2 µg/mL (≈ 6.53 µM) |

More lines, main results first:

| MIC (C. albicans ATCC 24433) [µg/mL] | MIC [1] [µg/mL] | MIC (A. niger ATCC 16404) [µg/mL] | SMILES | other results |
| --- | --- | --- | --- | --- |
| 0.25 (≈ 0.621 µM) | > 64 | > 64 | O=C1CSc2ccccc2N1CC(O)(Cn1cncn1)c1ccc(F)cc1F (stereo not shown) [Compound 1a, 4-[2-(2,4-Difluorophenyl)-2-hydroxy-3-[1,2,4]triazol-1-yl-propyl]-4H-benzo[1,4]thiazin-3-one] | MIC (C. albicans ATCC90028): 0.03 µg/mL (≈ 0.0745 µM); MIC (C. albicans ATCC2091): 2 µg/mL (≈ 4.97 µM); MIC (C. krusei ATCC6258): 4 µg/mL (≈ 9.94 µM); MIC (C. glabrata ATCC90030): 0.06 µg/mL (≈ 0.149 µM); MIC (C. albicans ATCC10231): 0.12 µg/mL (≈ 0.298 µM); MIC (C. albicans ATCC24433): 0.03 µg/mL (≈ 0.0745 µM); MIC (C. tropicalis ATCC750): 0.5 µg/mL (≈ 1.24 µM) |
| 1 (≈ 2.29 µM) | > 16 | > 16 | O=C1CSc2cc(Cl)ccc2N1CC(O)(Cn1cncn1)c1ccc(F)cc1F (stereo not shown) [Compound 1b, 7-Chloro-4-[2-(2,4-difluorophenyl)-2-hydroxy-3-[1,2,4]-triazol-1-yl-propyl]-4H-benzo[1,4]thiazin-3-one] | – |
| 2 (≈ 4.8 µM) | > 32 | > 32 | Cc1ccc2c(c1)SCC(=O)N2CC(O)(Cn1cncn1)c1ccc(F)cc1F (stereo not shown) [Compound 1e, 4-[2-(2,4-Difluorophenyl)-2-hydroxy-3-[1,2,4]triazol-1-yl-propyl]-7-methyl-4H-benzo[1,4]thiazin-3-one] | – |
| 2 (≈ 4.77 µM) | > 16 | > 16 | O=C1CSc2cc(Cl)ccc2N1CC(O)(Cn1cncn1)c1ccc(F)cc1 (stereo not shown) [Compound 1f, 7-Chloro-4-[2-(4-fluorophenyl)-2-hydroxy-3-[1,2,4]-triazol-1-yl-propyl]-4H-benzo[1,4]thiazin-3-one] | – |
| 2 (≈ 4.21 µM) | > 16 | > 16 | COc1ccc2c(c1)SCC(=O)N2CC(O)(Cn1cncn1)c1ccc(Br)cc1 (stereo not shown) [Compound 1g, 4-[2-(4-Bromophenyl)-2-hydroxy-3-[1,2,4]triazol-1-yl-propyl]-7-methoxy-4H-benzo[1,4]thiazin-3-one] | – |
| 8 (≈ 19.3 µM) | > 16 | > 16 | COc1ccc2c(c1)SCC(=O)N2CC(O)(Cn1cncn1)c1ccc(F)cc1 (stereo not shown) [Compound 1h, 4-[2-(4-Fluorophenyl)-2-hydroxy-3-[1,2,4]triazol-1-yl-propyl]-7-methoxy-4H-benzo[1,4]thiazin-3-one] | – |
| 8 (≈ 19 µM) | > 32 | > 32 | O=C1COc2ccc(Cl)cc2N1CC(O)(Cn1cncn1)c1ccc(F)cc1F (stereo not shown) [Compound 1j, 6-Chloro-4-[2-(2,4-difluorophenyl)-2-hydroxy-3-[1,2,4]triazol-1-yl-propyl]-4H-benzo[1,4]oxazin-3-one] | – |
| 16 (≈ 34.4 µM) | > 32 | > 32 | O=C1COc2ccc(Br)cc2N1CC(O)(Cn1cncn1)c1ccc(F)cc1F (stereo not shown) [Compound 1k, 6-Bromo-4-[2-(2,4-difluorophenyl)-2-hydroxy-3-[1,2,4]triazol-1-yl-propyl]-4H-benzo[1,4]oxazin-3-one] | – |
| 32 (≈ 74.2 µM) | > 32 | > 32 | O=C1COc2ccc([N+](=O)[O-])cc2N1CC(O)(Cn1cncn1)c1ccc(F)cc1F (stereo not shown) [Compound 1l, 4-[2-(2,4-Difluorophenyl)-2-hydroxy-3-[1,2,4]triazol-1-yl-propyl]-6-nitro-4H-benzo[1,4]oxazin-3-one] | – |
| > 64 | > 64 | > 64 | CC(=O)c1ccc2c(c1)N(CC(O)(Cn1cncn1)c1ccc(F)cc1F)C(=O)CO2 (stereo not shown) [Compound 1m, 6-Acetyl-4-[2-(2,4-difluorophenyl)-2-hydroxy-3-[1,2,4]-triazol-1-yl-propyl]-4H-benzo[1,4]oxazin-3-one] | – |
| 32 (≈ 67.9 µM) | > 32 | > 32 | CC(=O)c1ccc2c(c1)N(CC(O)(Cn1cncn1)c1ccc(Br)cc1)C(=O)CO2 (stereo not shown) [Compound 1p, 6-Acetyl-4-[2-(4-bromophenyl)-2-hydroxy-3-[1,2,4]triazol-1-yl-propyl]-4H-benzo[1,4]oxazin-3-one] | – |
